The values below come from patent US20050282743A1, “Molecular interactions in cells” (Arbor Vita Corporation, priority 2001, published 2005).

Ends that are not written are not given here. Peptide text beside a SMILES is read from it. * marks the point of attachment. Biotin = O=C1N[C@H]2[C@H](CS[C@H]2CCCCC(=O)*)N1

Experiment in all cases: G' assay (10 uM PL peptide), results of TABLE 7 and TABLE 12
Type in all cases: binding

For assay [1], the target named is T1, PDZ protein (GST-PDZ fusion) (Homo sapiens, UniProt Q9NSN8).
T1 construct: made in house; host or cells: E. coli (DH5alpha, BL21 or JM109)
T1 sequence (Q9NSN8 1-517): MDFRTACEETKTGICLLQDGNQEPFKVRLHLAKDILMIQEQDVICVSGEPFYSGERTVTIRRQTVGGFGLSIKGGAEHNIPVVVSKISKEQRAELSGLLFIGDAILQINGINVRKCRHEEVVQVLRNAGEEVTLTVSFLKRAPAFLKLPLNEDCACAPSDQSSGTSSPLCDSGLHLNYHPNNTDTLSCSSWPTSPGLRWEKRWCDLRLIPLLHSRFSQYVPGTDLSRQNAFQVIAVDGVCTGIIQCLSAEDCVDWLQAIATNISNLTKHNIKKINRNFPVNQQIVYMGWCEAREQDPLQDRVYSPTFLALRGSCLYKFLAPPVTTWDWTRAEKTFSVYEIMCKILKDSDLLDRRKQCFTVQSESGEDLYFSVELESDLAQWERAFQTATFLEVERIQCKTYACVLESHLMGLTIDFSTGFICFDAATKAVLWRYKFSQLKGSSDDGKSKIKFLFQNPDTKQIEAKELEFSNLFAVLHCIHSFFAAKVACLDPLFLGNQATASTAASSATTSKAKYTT
Particulars: PDZ Syntrophin gamma-1, PDZ Domain 1. Summed up:
(§1)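 Same steps as the G-zero format, apart from a peptide concentration of 10 uM in place of 20 uM in step 2. Amino-terminally biotinylated PL peptides bind GST-PDZ fusions, and retained peptide is quantified by 450 nm absorbance.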

For assay [2], the target named is T2, PDZ protein (GST-PDZ fusion) (Homo sapiens, UniProt Q9Y3R0).
T2 construct: made in house; host or cells: E. coli (DH5alpha, BL21 or JM109)
T2 sequence (Q9Y3R0 1-1128): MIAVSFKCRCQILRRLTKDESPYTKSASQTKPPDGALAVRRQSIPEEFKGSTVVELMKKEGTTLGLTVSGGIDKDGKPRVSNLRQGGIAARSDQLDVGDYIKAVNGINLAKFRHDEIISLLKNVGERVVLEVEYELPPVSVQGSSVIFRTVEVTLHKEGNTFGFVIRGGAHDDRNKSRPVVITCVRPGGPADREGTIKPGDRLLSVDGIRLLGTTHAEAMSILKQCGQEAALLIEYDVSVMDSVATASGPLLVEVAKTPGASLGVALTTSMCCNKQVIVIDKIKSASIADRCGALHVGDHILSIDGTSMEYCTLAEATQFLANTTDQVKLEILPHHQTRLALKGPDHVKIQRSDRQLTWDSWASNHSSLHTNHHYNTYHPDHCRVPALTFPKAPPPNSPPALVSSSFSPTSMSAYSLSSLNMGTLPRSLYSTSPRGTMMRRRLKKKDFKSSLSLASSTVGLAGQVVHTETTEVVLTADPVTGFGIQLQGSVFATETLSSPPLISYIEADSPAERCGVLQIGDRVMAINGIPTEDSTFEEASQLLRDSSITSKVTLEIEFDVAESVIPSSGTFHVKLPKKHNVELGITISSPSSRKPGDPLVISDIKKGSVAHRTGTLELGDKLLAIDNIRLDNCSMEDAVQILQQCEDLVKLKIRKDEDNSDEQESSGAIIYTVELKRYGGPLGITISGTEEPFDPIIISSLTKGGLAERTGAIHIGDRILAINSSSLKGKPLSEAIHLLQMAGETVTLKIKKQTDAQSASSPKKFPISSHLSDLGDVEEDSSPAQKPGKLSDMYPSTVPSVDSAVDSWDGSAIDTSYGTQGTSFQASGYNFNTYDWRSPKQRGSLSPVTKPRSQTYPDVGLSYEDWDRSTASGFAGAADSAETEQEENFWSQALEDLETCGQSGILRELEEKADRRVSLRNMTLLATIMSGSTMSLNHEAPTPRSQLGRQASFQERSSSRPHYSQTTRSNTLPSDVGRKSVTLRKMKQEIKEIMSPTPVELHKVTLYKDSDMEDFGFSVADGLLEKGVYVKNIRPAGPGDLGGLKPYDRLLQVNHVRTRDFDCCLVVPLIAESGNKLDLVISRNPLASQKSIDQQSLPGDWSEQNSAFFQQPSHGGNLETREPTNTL
Summed up:
as §1

Assay [3] has as its target T3, PDZ protein (GST-PDZ fusion) (Homo sapiens, UniProt Q07157).
T3 construct: made in house; host or cells: E. coli (DH5alpha, BL21 or JM109)
In short, it runs like this: as §1

T3 sequence (Q07157 whole entry, the tested form may be a part): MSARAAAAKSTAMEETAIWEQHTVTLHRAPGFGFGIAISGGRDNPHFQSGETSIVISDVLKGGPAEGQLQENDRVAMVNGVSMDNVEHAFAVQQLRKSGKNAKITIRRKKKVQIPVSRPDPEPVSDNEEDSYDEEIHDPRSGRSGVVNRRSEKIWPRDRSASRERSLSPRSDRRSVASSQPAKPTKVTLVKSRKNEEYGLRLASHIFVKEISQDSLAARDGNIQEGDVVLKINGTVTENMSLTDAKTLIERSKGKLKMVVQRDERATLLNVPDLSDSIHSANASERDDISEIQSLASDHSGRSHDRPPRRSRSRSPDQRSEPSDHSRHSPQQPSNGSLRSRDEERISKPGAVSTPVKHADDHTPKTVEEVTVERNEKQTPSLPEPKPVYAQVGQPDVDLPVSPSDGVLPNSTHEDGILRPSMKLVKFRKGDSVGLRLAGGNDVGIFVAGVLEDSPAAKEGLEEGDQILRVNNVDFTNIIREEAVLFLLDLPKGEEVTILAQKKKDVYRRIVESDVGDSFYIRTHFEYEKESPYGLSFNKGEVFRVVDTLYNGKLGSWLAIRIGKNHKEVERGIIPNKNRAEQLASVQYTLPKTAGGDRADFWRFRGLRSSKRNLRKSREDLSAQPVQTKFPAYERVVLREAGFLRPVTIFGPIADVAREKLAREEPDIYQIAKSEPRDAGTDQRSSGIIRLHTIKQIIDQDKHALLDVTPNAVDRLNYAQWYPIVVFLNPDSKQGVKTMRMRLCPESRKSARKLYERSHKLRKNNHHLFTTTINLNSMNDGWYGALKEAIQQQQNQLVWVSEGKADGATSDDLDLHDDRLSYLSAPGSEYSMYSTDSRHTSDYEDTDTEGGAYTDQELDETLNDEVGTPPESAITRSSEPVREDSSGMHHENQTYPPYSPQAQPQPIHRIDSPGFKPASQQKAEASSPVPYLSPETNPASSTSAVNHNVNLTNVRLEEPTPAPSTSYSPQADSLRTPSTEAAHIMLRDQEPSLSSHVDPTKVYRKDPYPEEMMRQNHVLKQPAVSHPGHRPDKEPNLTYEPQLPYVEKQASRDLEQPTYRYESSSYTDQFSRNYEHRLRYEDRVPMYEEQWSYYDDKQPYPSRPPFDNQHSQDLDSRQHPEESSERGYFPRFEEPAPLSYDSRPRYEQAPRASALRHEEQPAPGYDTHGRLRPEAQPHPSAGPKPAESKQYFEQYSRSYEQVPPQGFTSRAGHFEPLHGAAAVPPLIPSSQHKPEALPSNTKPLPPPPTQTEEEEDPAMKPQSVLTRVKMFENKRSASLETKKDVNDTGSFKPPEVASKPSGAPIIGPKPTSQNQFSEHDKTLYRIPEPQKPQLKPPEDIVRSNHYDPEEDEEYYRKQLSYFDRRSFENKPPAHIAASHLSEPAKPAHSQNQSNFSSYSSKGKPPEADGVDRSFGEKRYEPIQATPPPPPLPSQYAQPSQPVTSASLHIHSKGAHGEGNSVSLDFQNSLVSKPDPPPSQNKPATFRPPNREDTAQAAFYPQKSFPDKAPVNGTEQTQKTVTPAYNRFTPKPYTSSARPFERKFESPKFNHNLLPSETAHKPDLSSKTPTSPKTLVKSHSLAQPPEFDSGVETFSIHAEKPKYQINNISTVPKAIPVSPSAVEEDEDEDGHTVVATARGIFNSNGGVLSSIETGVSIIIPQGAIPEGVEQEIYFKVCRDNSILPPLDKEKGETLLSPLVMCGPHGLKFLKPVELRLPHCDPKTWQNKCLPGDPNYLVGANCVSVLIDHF

For the compound “PYSELNYETSHYPASPDSWV (Biotin-PYSELNYETSHYPASPDSWV) [catenin - delta 2]”, in assay [1], the Classification is recorded as 1 (A450 nm 0-1). Turning to “LNETTETQRTLLNGDLQTSI (Biotin-LNETTETQRTLLNGDLQTSI) [SSTR2 (somatostatin recepor 2)]”, the Classification in assay [2] (PDZ GRIP1, PDZ Domain 7) is 1 (A450 nm 0-1). “ALVLIAFCIIRRRPSAYQAL (Biotin-ALVLIAFCIIRRRPSAYQAL) [CD68]”: the Classification in assay [2] (PDZ GRIP1, PDZ Domain 6) is listed as 1 (A450 nm 0-1). Take `CC(C)C[C@H](NC(=O)[C@H](C)NC(=O)[C@H](CO)NC(=O)CNC(=O)[C@@H](NC(=O)CCCC[C@@H]1SC[C@@H]2NC(=O)N[C@@H]21)[C@@H](C)O)C(=O)N[C@@H](CCC(N)=O)C(=O)N[C@@H](C)C(=O)N[C@@H](Cc1c[nH]c2ccccc12)C(=O)N[C@@H](CCCNC(=N)N)C(=O)N[C@@H](Cc1c[nH]cn1)C(=O)N[C@H](C(=O)N[C@@H](CO)C(=O)N[C@@H](CCCNC(=N)N)C(=O)N[C@@H](CCC(N)=O)C(=O)N[C@@H](C)C(=O)N[C@H](C(=O)N[C@@H](CCC(=O)O)C(=O)N[C@@H](CO)C(=O)N[C@H](C(=O)N[C@H](C(=O)O)C(C)C)[C@@H](C)O)[C@@H](C)O)[C@@H](C)O` [HPV E6 #66 (modified)] (Biotin-TGSALQAWRHTSRQATESTV-OH; C-terminus assumed): in assay [1], the Classification is 1 (A450 nm 0-1). The same measure, in the same setting: for `CC[C@H](C)[C@H](NC(=O)[C@H](CCC(N)=O)NC(=O)CCCC[C@@H]1SC[C@@H]2NC(=O)N[C@@H]21)C(=O)N[C@@H](CO)C(=O)N1CCC[C@H]1C(=O)NCC(=O)NCC(=O)N[C@@H](CC(C)C)C(=O)N[C@@H](CCC(=O)O)C(=O)N1CCC[C@H]1C(=O)N1CCC[C@H]1C(=O)N[C@@H](CO)C(=O)N[C@@H](CCC(=O)O)C(=O)N[C@@H](CCCCN)C(=O)N[C@@H](Cc1c[nH]cn1)C(=O)N[C@@H](Cc1ccccc1)C(=O)N[C@@H](CCCNC(=N)N)C(=O)N[C@@H](CCC(=O)O)C(=O)N[C@H](C(=O)N[C@@H](CCC(=O)O)C(=O)N[C@H](C(=O)O)C(C)C)[C@@H](C)O` [Tax] the value was 5 (A450 nm of 4 more than 2× repeated).

As for `CC(C)C[C@H](NC(=O)[C@H](CC(=O)O)NC(=O)[C@H](CO)NC(=O)[C@H](CCC(=O)O)NC(=O)CNC(=O)[C@H](Cc1ccc(O)cc1)NC(=O)[C@H](CC(C)C)NC(=O)[C@H](C)NC(=O)[C@H](CO)NC(=O)[C@H](CO)NC(=O)[C@H](Cc1ccccc1)NC(=O)[C@H](C)NC(=O)[C@H](C)NC(=O)[C@H](Cc1ccc(O)cc1)NC(=O)[C@H](CC(=O)O)NC(=O)[C@H](CC(C)C)NC(=O)[C@H](C)NC(=O)CNC(=O)[C@@H]1CCCN1C(=O)[C@@H](NC(=O)CCCC[C@@H]1SC[C@@H]2NC(=O)N[C@@H]21)C(C)C)C(=O)O` [a-actinin 2] (Biotin-VPGALDYAAFSSALYGESDL-OH; C-terminus assumed), the Classification in assay [1] is listed as 1 (A450 nm 0-1). As to `CC[C@H](C)[C@H](NC(=O)[C@H](CCC(N)=O)NC(=O)[C@@H](NC(=O)[C@H](Cc1c[nH]cn1)NC(=O)[C@H](CCC(N)=O)NC(=O)[C@H](CC(=O)O)NC(=O)[C@H](CCC(=O)O)NC(=O)[C@H](CC(=O)O)NC(=O)[C@H](Cc1ccccc1)NC(=O)[C@@H]1CCCN1C(=O)[C@H](CCC(=O)O)NC(=O)[C@H](CC(N)=O)NC(=O)[C@H](CCC(=O)O)NC(=O)[C@@H]1CCCN1C(=O)[C@H](CC(=O)O)NC(=O)[C@H](CO)NC(=O)[C@H](CC(=O)O)NC(=O)CCCC[C@@H]1SC[C@@H]2NC(=O)N[C@@H]21)[C@@H](C)O)C(=O)N[C@H](C(=O)N[C@@H](CCCCN)C(=O)N[C@H](C(=O)O)C(C)C)[C@@H](C)O` [PTEN], the Classification in assay [1] is 1 (A450 nm 0-1); in assay [2] (PDZ GRIP1, PDZ Domain 3), 1 (A450 nm 0-1).

Take `CC[C@H](C)[C@H](NC(=O)[C@H](C)NC(=O)[C@H](CC(C)C)NC(=O)[C@H](Cc1c[nH]c2ccccc12)NC(=O)[C@H](Cc1c[nH]cn1)NC(=O)[C@H](CCC(N)=O)NC(=O)[C@H](CC(C)C)NC(=O)[C@H](CCC(N)=O)NC(=O)[C@H](Cc1ccccc1)NC(=O)[C@H](CCC(N)=O)NC(=O)[C@H](CCCNC(=N)N)NC(=O)[C@@H](NC(=O)[C@H](CC(=O)O)NC(=O)[C@H](CCCNC(=N)N)NC(=O)[C@H](CCC(N)=O)NC(=O)[C@H](C)NC(=O)[C@@H](NC(=O)[C@H](CC(C)C)NC(=O)[C@H](Cc1c[nH]cn1)NC(=O)[C@H](Cc1c[nH]cn1)NC(=O)CCCC[C@@H]1SC[C@@H]2NC(=O)N[C@@H]21)C(C)C)[C@@H](C)CC)C(=O)O` [noradrenaline transporter] (Biotin-HHLVAQRDIRQFQLQHWLAI-OH; C-terminus assumed): the Classification is on record as 2 (A450 nm 1-2) in assay [3] (PDZ ZO-1, PDZ Domain 2) and 2 (A450 nm 1-2) in assay [2] (PDZ GRIP1, PDZ Domain 6). In the case of “A2AA_HUMAN (modified) (Biotin-HDFRRAFKKILARGDRKRIV; not fully specified)”, the Classification in assay [3] (PDZ ZO-1, PDZ Domain 2) was 4 (A450 nm 3-4); in assay [1], 2 (A450 nm 1-2). On to “A2AC_HUMAN (Modified) (Biotin-DFRPSFKHILFRRARRGFRQ; not fully specified)”, for which the Classification in assay [2] (PDZ GRIP1, PDZ Domain 5) is 1 (A450 nm 0-1).

Regarding “GPVPGEPAKPKTSAHHATFV (Biotin-GPVPGEPAKPKTSAHHATFV)”, in assay [3] (PDZ ZO-1, PDZ Domain 1), the Classification is on record as 1 (A450 nm 0-1). As to `CC[C@H](C)[C@H](NC(=O)[C@H](Cc1c[nH]cn1)NC(=O)[C@H](C)NC(=O)[C@H](C)NC(=O)[C@H](CO)NC(=O)[C@@H]1CCCN1C(=O)[C@H](CCCNC(=N)N)NC(=O)[C@H](CC(=O)O)NC(=O)[C@H](CCCCN)NC(=O)[C@@H]1CCCN1C(=O)[C@H](CC(=O)O)NC(=O)[C@H](CCC(=O)O)NC(=O)CCCC[C@@H]1SC[C@@H]2NC(=O)N[C@@H]21)C(=O)N[C@H](C(=O)N[C@@H](CCC(=O)O)C(=O)N[C@@H](C)C(=O)N[C@@H](CC(C)C)C(=O)N[C@@H](CCC(=O)O)C(=O)N[C@H](C(=O)N[C@@H](CC(=O)O)C(=O)N[C@H](C(=O)O)C(C)C)[C@@H](C)O)C(C)C` [PDZ-binding kinase (PBK)] (Biotin-EDPKDRPSAAHIVEALETDV-OH; C-terminus assumed), the Classification in assay [1] is listed as 1 (A450 nm 0-1). With `CC(C)C[C@H](NC(=O)[C@H](Cc1c[nH]c2ccccc12)NC(=O)[C@H](Cc1c[nH]cn1)NC(=O)[C@H](CCCNC(=N)N)NC(=O)[C@H](CC(C)C)NC(=O)[C@@H](NC(=O)[C@H](Cc1ccccc1)NC(=O)[C@H](CCC(N)=O)NC(=O)[C@H](CCCNC(=N)N)NC(=O)[C@@H](NC(=O)[C@H](CCC(=O)O)NC(=O)CNC(=O)[C@H](CCCNC(=N)N)NC(=O)[C@H](CC(=O)O)NC(=O)[C@@H](NC(=O)[C@H](CC(C)C)NC(=O)[C@H](CCC(=O)O)NC(=O)[C@H](CCCNC(=N)N)NC(=O)CCCC[C@@H]1SC[C@@H]2NC(=O)N[C@@H]21)C(C)C)C(C)C)[C@@H](C)O)C(=O)N[C@@H](CCCCN)C(=O)N[C@H](C(=O)O)C(C)C` [Dopamine transporter (Na+-dependent)] (Biotin-RELVDRGEVRQFTLRHWLKV-OH; C-terminus assumed), the Classification in assay [3] (PDZ ZO-1, PDZ Domain 2) was 1 (A450 nm 0-1).
